Reference: patent US9695182B2, “Chemical compounds (derivatives) and their application for the treatment of oncological diseases” (LIMITED LIABILITY COMPANY “NATIONAL PHARMACEUTICAL …, priority 2013, dated 2017)

Test system: Karpas-299
Assay: Antiproliferative activity on KARPAS-299 cells (MTS)
Type: cell-based
Details: Homo sapiens, concentration at which the number of living cells is reduced 2-fold compared with absence of compound
Protocol: Furthermore, antiproliferative activity of the compounds of this invention can be studied on cell lines KARPAS-299 of anaplastic large cell lymphoma according to the following procedure. KARPAS-299 cells cultured in RPMI 1640 growth medium, are transferred in duplicate to 96-well culture plate (10,000 cells per well) and a solution of the analytes in a growth medium is added to them at various concentrations (final volume in each well—100 μl). The solids were dissolved in DMSO and then the solution was diluted with DMSO to the desired concentration, mixed with an equal volume of growth medium and transferred to wells with the cells. The final concentration of compounds ranged from 0.5 nM to 10 μM. DMSO was used as a control (in the same amount as that of adding solutions of substances). After the cells incubation with the compounds for 72 hours, the number of viable cells was determined. For this purpose, old medium was removed, 100 μl of fresh medium and 40 μl of MTS solution, containing 5 mg/ml PBS were added to each well. The plate was incubated for 2 hours at 37° C., then 100 μl of DMSO was added to each well and mixed for 1 minute. Then, the optical density was determined at 490 nm and percentage of inhibition of proliferation was calculated in comparison with the control (containing no analytes).

Structure (SMILES)	IC50 [nM]
Fc1ccc(Cl)c(CN2CCNc3nnc(-c4ccc(N5CCOCC5)cc4)cc32)c1Cl	< 100
COc1cc(N2CCC(N(C)C)CC2)ccc1Nc1cc2c(nn1)NCCN2Cc1c(Cl)ccc(F)c1Cl	< 100
C[C@H](c1cc(Cl)ccc1C(F)(F)F)N1CCNc2nnc(Nc3cccc(N4CCOCC4)c3)cc21	< 100
Fc1ccc(Cl)c(CN2CCNc3nnc(-c4nnc(C(F)(F)F)[nH]4)cc32)c1Cl	< 1000
C[C@H](c1c(Cl)ccc(F)c1Cl)N1CCNc2nnc(-c3nc(C4CCNCC4)no3)cc21	< 100
CN1CCN(C(=O)c2ccc(NC(=O)c3cc4c(nn3)NCCN4Cc3cc(Cl)ccc3Cl)cc2)CC1 [drawing 231]	< 100
C[C@H](c1c(Cl)ccc(F)c1Cl)N1CCNc2nnc(Nc3cccc(N4CCOCC4)c3)cc21	< 100
C[C@H](c1c(Cl)ccc(F)c1Cl)N1CCNc2nnc(-c3ccc(N4CCCC4)nc3)cc21	< 100
O=C(c1cc2c(nn1)NCCN2Cc1c(Cl)ccc(F)c1Cl)N1CCN(c2ccccc2)CC1	< 100
Fc1ccc(Cl)c(CN2CCNc3nnc(-c4nnc(C5CCNCC5)[nH]4)cc32)c1Cl [drawing 233]	< 100
O=C(NCCc1ccccc1)c1cc2c(nn1)NCCN2Cc1c(Cl)ccc(F)c1Cl	< 1000
CC(c1c(Cl)ccc(F)c1Cl)N1CCNc2nnc(C(=O)Nc3ccc(C(=O)N4CCCC4)cc3)cc21 (stereo not shown) [drawing 228]	< 100
Clc1ccc(Cl)c(CN2CCNc3nnc(-c4nnc(C5CCNCC5)[nH]4)cc32)c1 [drawing 218]	< 100
O=C(Nc1ccc(N2CCOCC2)cc1)c1cc2c(nn1)NCCN2Cc1cc(Cl)ccc1Cl [drawing 232]	< 100
CN1CCC(c2nnc(-c3cc4c(nn3)NCCN4Cc3c(Cl)ccc(F)c3Cl)o2)CC1	< 100
CC(C)c1noc(-c2cc3c(nn2)NCCN3Cc2c(Cl)ccc(F)c2Cl)n1	< 1000
Clc1ccc(Cl)c(CN2CCNc3nnc(-c4nnc(C5CCNCC5)o4)cc32)c1 [drawing 234]	< 100
Clc1ccc(Cl)c(CN2CCNc3nnc(CNC4CCNCC4)cc32)c1	< 1000

Test system: NCI-H3122 cells
Assay: Efficacy in animal model of non-small cell lung cancer (NCI-H3122 tumors)
Type: in vivo, male athymic mice
Details: 30 mg/kg daily by gavage, 20 days; ratio of average tumor volume treatment/control
Protocol: The male athymic mice were used for the studies. NCI-H3122 cells in an amount of 1×10^7 were administered in the form of 0.2 ml Matrigel solution (BD Pharmingen) in the left leg of the mouse under ketamine-xylazine anesthesia. One week after cells injection mice were divided into the treatment and control groups and randomized by tumor size. Tumor volume was calculated according to the formula V=0.5×W^2×L. The control animals received daily 0.3 ml of 0.5% of methylcellulose solution, animals of the treatment group −0.3 ml of 0.5% of methylcellulose suspension containing the drug in a test dose. The solutions were administered by gavage. The treatment continued for 20 days. The ratio of the average volume for the treatment/control groups (% T/C) was calculated after treatment to determine the effectiveness of inhibition of tumor growth. The analysis of the statistical significance using Dunnett's test was performed for the data collection. Effectiveness of the test compounds in a dose of 30 mg/kg is introduced below.

Structure (SMILES)	% T/C [%]
CC(c1c(Cl)ccc(F)c1Cl)N1CCNc2nnc(C(=O)Nc3ccc(C(=O)N4CCCC4)cc3)cc21 (stereo not shown) [drawing 237]	<40
Clc1ccc(Cl)c(CN2CCNc3nnc(-c4nnc(C5CCNCC5)o4)cc32)c1 [drawing 241]	<40
O=C(Nc1ccc(N2CCOCC2)cc1)c1cc2c(nn1)NCCN2Cc1cc(Cl)ccc1Cl [drawing 239]	<40
CN1CCN(C(=O)c2ccc(NC(=O)c3cc4c(nn3)NCCN4Cc3cc(Cl)ccc3Cl)cc2)CC1 [drawing 238]	<40
Fc1ccc(Cl)c(CN2CCNc3nnc(-c4nnc(C5CCNCC5)[nH]4)cc32)c1Cl [drawing 240]	<40
Clc1ccc(Cl)c(CN2CCNc3nnc(-c4nnc(C5CCNCC5)[nH]4)cc32)c1 [drawing 236]	<40

Test system: Karpas-299 cells
Assay: Efficacy in animal model of anaplastic large cell lymphoma (Karpas-299 tumors)
Type: in vivo, SCID-mice
Details: 30 mg/kg daily by gavage, 23 days; ratio of average tumor volume treatment/control
Protocol: SCID-mice with tumors that have developed as a result of the introduction of Karpas-299 cells were used for the studies. When tumor size reached 220 mm^3 animals were divided into the treatment and control groups and were randomized by tumor size. The control animals received daily 0.3 ml of 0.5% of methylcellulose solution, animals of the treatment group—0.3 ml of 0.5% of methylcellulose suspension containing the drug in a test dose. The solutions were administered by gavage. The treatment continued for 23 days. The ratio of the average volume for the treatment/control groups (% T/C) was calculated after treatment to determine the effectiveness of inhibition of tumor growth. The analysis of the statistical significance using Dunnett's test was performed for the data collection. Effectiveness of the test compounds in a dose of 30 mg/kg is introduced below.

Structure (SMILES)	% T/C [%]
Fc1ccc(Cl)c(CN2CCNc3nnc(-c4nnc(C5CCNCC5)[nH]4)cc32)c1Cl [drawing 246]	<40
CC(c1c(Cl)ccc(F)c1Cl)N1CCNc2nnc(C(=O)Nc3ccc(C(=O)N4CCCC4)cc3)cc21 (stereo not shown) [drawing 243]	<40
Clc1ccc(Cl)c(CN2CCNc3nnc(-c4nnc(C5CCNCC5)o4)cc32)c1 [drawing 247]	<40
Clc1ccc(Cl)c(CN2CCNc3nnc(-c4nnc(C5CCNCC5)[nH]4)cc32)c1 [drawing 242]	<40
O=C(Nc1ccc(N2CCOCC2)cc1)c1cc2c(nn1)NCCN2Cc1cc(Cl)ccc1Cl [drawing 245]	<40
CN1CCN(C(=O)c2ccc(NC(=O)c3cc4c(nn3)NCCN4Cc3cc(Cl)ccc3Cl)cc2)CC1 [drawing 244]	<40

Test system: not given
Assay: not given
Details: in vivo; cited from earlier work

Structure (SMILES)	penetration through the blood-brain barrier
C[C@@H](Oc1cc(-c2cnn(C3CCNCC3)c2)cnc1N)c1c(Cl)ccc(F)c1Cl [Crizotinib]	does not penetrate through the blood-brain barrier
